Measurements reported in patent US20250034135A1, “ANTI-APOPTOTIC PROTEIN BCL-2 INHIBITOR, PHARMACEUTICAL COMPOSITION AND USES THEREOF” (HANGZHOU HEALZEN THERAPEUTICS CO., LTD., priority 2021, published 2025).

target: BCL2 (Homo sapiens (Human), UniProt P10415); assay: Molecular level activity test of anti-apoptotic protein BCL2 (HTRF, binding to Bim peptide); details: HTRF, binding of BCL2 to Bim peptide; read-out: BCL2 nM (inhibitory activity, IC50)
Procedure, shortened: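 Disruption of the BCL2/Bim peptide interaction is detected by homogeneous time-resolved fluorescence, using anti-His and streptavidin-XL665 reagents against His-tagged protein and biotin-tagged peptide. Compound exposure lasts 1 h before reagent addition; plates then sit 4 h at room temperature.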

BCL2, sequence (P10415 whole entry): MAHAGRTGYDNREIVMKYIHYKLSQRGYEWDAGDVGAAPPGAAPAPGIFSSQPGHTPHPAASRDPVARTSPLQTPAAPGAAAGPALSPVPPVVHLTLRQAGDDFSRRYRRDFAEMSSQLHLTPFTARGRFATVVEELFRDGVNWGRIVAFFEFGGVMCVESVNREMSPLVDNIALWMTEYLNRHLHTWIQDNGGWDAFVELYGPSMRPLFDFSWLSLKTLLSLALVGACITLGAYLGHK

IC50, < 0.01 µM:
COc1ccc(CN2CCN(C3CC4(CCN(c5ccc(C(=O)NS(=O)(=O)c6cc([N+](=O)[O-])c(NC[C@H]7CC[C@](C)(O)CC7)c7c6OCCO7)c(Oc6cnc7[nH]ccc7c6)c5)CC4)C3)[C@H](c3ccccc3C(C)C)C2)cc1 [compound 182, 2-((1H-pyrrolo[2,3-b]pyrid-5-yl)oxy)-N-((8-((((1r, 4r)-4-hydroxy-4-methylcyclohexyl)methyl)amino)-7-nitro-2,3-dihydrobenzo[b][1,4]dioxan-5-yl)sulfonyl)-4-(2-((R)-2-(2-isopropylphenyl)-4-(4-methoxybenzyl)piperazin-1-yl)-7-azaspiro[3.5]non-7-yl)benzamide]
COc1ccc(CN2CCN(C3CC4(CCN(c5ccc(C(=O)NS(=O)(=O)c6cc([N+](=O)[O-])c(NC[C@H]7COCCO7)c7c6OCCO7)c(Oc6cnc7[nH]ccc7c6)c5)CC4)C3)[C@H](c3ccccc3C(C)C)C2)cc1 [compound 183, N-((8-((((S)-1,4-dioxan-2-yl)methyl)amino)-7-nitro-2,3-dihydrobenzo[b][1,4]dioxan-5-yl)sulfonyl)-2-((1H-pyrrolo[2,3-b]pyrid-5-yl)oxy)-4-(2-((R)-2-(2-isopropylphenyl)-4-(4-methoxybenzyl)piperazin-1-yl)-7-azaspiro[3.5]non-7-yl)benzamide]
COc1cc(CN2CCN(C3CC4(CCN(c5cc(Oc6cnc7[nH]ccc7c6)c(C(=O)NS(=O)(=O)c6ccc(NCC7(F)CCOCC7)c([N+](=O)[O-])c6)cc5F)CC4)C3)[C@H](c3ccccc3C(C)C)C2)ccc1C(C)C [compound 194, (R)-2-((1H-pyrrolo[2,3-b]pyrid-5-yl)oxy)-5-fluoro-N-((4-(((4-fluorotetrahydro-2H-pyran-4-yl)methyl)amino)-3-nitrophenyl)sulfonyl)-4-(2-(4-(4-isopropyl-3-methoxybenzyl)-2-(2-isopropylphenyl)piperazin-1-yl)-7-azaspiro[3.5]non-7-yl)benzamide]
CC(C)c1ccccc1[C@@H]1CN(Cc2ccc(N(C)C)cc2)CCN1C1CC2(CCN(c3cc(Oc4cnc5[nH]ccc5c4)c(C(=O)NS(=O)(=O)c4ccc(NCC5(F)CCOCC5)c([N+](=O)[O-])c4)cc3F)CC2)C1 [compound 198, (R)-2-((1H-pyrrolo[2,3-b]pyrid-5-yl)oxy)-4-(2-(4-(4-(dimethylamino)benzyl)-2-(2-isopropylphenyl)piperazin-1-yl)-7-azaspiro[3.5]non-7-yl)-5-fluoro-N-((4-(((4-fluorotetrahydro-2H-pyran-4-yl)methyl)amino)-3-nitrophenyl)sulfonyl)benzamide]
CC(C)c1ccccc1[C@@H]1CN(Cc2ccc(C#N)cc2)CCN1C1CC2(CCN(c3cc(Oc4cnc5[nH]ccc5c4)c(C(=O)NS(=O)(=O)c4ccc(NCC5(F)CCOCC5)c([N+](=O)[O-])c4)cc3F)CC2)C1 [compound 199, (R)-2-((1H-pyrrolo[2,3-b]pyrid-5-yl)oxy)-4-(2-(4-(4-cyanobenzyl)-2-(2-isopropylphenyl)piperazin-1-yl)-7-azaspiro[3.5]non-7-yl)-5-fluoro-N-((4-(((4-fluorotetrahydro-2H-pyran-4-yl)methyl)amino)-3-nitrophenyl)sulfonyl)benzamide]
CC(=O)Nc1ccc(CN2CCN(C3CC4(CCN(c5cc(Oc6cnc7[nH]ccc7c6)c(C(=O)NS(=O)(=O)c6ccc(NCC7(F)CCOCC7)c([N+](=O)[O-])c6)cc5F)CC4)C3)[C@H](c3ccccc3C(C)C)C2)cc1 [compound 200, (R)-2-((1H-pyrrolo[2,3-b]pyrid-5-yl)oxy)-4-(2-(4-(4-acetylaminobenzyl)-2-(2-isopropylphenyl)piperazin-1-yl)-7-azaspiro[3.5]non-7-yl)-5-fluoro-N-((4-(((4-fluorotetrahydro-2H-pyran-4-yl)methyl)amino)-3-nitrophenyl)sulfonyl)benzamide]
CC(C)c1ccccc1[C@@H]1CN(Cc2ccc(NS(C)(=O)=O)cc2)CCN1C1CC2(CCN(c3cc(Oc4cnc5[nH]ccc5c4)c(C(=O)NS(=O)(=O)c4ccc(NCC5(F)CCOCC5)c([N+](=O)[O-])c4)cc3F)CC2)C1 [compound 201, (R)-2-((1H-pyrrolo[2,3-b]pyrid-5-yl)oxy)-5-fluoro-N-((4-(((4-fluorotetrahydro-2H-pyran-4-yl)methyl)amino)-3-nitrophenyl)sulfonyl)-4-(2-(2-(2-isopropylphenyl)-4-(4-(methylsulfonylamino)benzyl)piperazin-1-yl)-7-azaspiro[3.5]non-7-yl)benzamide]
COc1cc(CN2CCN(C3CC4(CCN(c5cc(Oc6cnc7[nH]ccc7c6)c(C(=O)NS(=O)(=O)c6ccc(NCC7(F)CCOCC7)c([N+](=O)[O-])c6)cc5F)CC4)C3)[C@H](c3ccccc3C(C)C)C2)cc2cc(C)oc12 [compound 202, (R)-2-((1H-pyrrolo[2,3-b]pyrid-5-yl)oxy)-5-fluoro-N-((4-(((4-fluorotetrahydro-2H-pyran-4-yl)methyl)amino)-3-nitrophenyl)sulfonyl)-4-(2-(2-(2-isopropylphenyl)-4-((7-methoxy-2-methylbenzofuran-5-yl)methyl)piperazin-1-yl)-7-azaspiro[3.5]non-7-yl)benzamide]
COc1ccc(CN2CCN(C3CC4(CCN(c5cc(Oc6cnc7[nH]ccc7c6)c(C(=O)NS(=O)(=O)c6ccc(NCC7(F)CCOCC7)c([N+](=O)[O-])c6)cc5F)CC4)C3)[C@H](c3ccccc3C(C)C)C2)c2c1OCCO2 [compound 206, (R)-2-((1H-pyrrolo[2,3-b]pyrid-5-yl)oxy)-5-fluoro-N-((4-(((4-fluorotetrahydro-2H-pyran-4-yl)methyl)amino)-3-nitrophenyl)sulfonyl)-4-(2-(2-(2-isopropylphenyl)-4-(8-methoxy-2,3-dihydrobenzo[b][1,4-dioxan-5-yl)methyl)piperazin-1-yl)-7-azaspiro[3.5]non-7-yl)benzamide]
CC(C)c1ccccc1[C@@H]1CN(Cc2cccc3c2OCCO3)CCN1C1CC2(CCN(c3cc(Oc4cnc5[nH]ccc5c4)c(C(=O)NS(=O)(=O)c4ccc(NCC5(F)CCOCC5)c([N+](=O)[O-])c4)cc3F)CC2)C1 [compound 208, (R)-2-((1H-pyrrolo[2,3-b]pyrid-5-yl)oxy)-4-(2-(4-((2,3-dihydrobenzo[b][1,4]dioxan-5-yl)methyl)-2-(2-isopropylphenyl)piperazin-1-yl)-7-azaspiro[3.5]non-7-yl)-5-fluoro-N-((4-(((4-fluorotetrahydro-2H-pyran-4-yl)methyl)amino)-3-nitrophenyl)sulfonyl)benzamide]
CC(C)c1ccccc1[C@@H]1CN(Cc2cnn(C(C)C)c2)CCN1C1CC2(CCN(c3cc(Oc4cnc5[nH]ccc5c4)c(C(=O)NS(=O)(=O)c4ccc(NCC5(F)CCOCC5)c([N+](=O)[O-])c4)cc3F)CC2)C1 [compound 210, (R)-2-((1H-pyrrolo[2,3-b]pyrid-5-yl)oxy)-5-fluoro-N-((4-(((4-fluorotetrahydro-2H-pyran-4-yl)methyl)amino)-3-nitrophenyl)sulfonyl)-4-(2-(4-((1-isopropyl-1H-pyrazol-4-yl)methyl)-2-(2-isopropylphenyl)piperazin-1-yl)-7-azaspiro[3.5]non-7-yl)benzamide]
CC(C)c1ccccc1[C@@H]1CN(Cc2ccncc2)CCN1C1CC2(CCN(c3cc(Oc4cnc5[nH]ccc5c4)c(C(=O)NS(=O)(=O)c4ccc(NCC5(F)CCOCC5)c([N+](=O)[O-])c4)cc3F)CC2)C1 [compound 211, (R)-2-((1H-pyrrolo[2,3-b]pyrid-5-yl)oxy)-5-fluoro-N-((4-(((4-fluorotetrahydro-2H-pyran-4-yl)methyl)amino)-3-nitrophenyl)sulfonyl)-4-(2-(2-(2-isopropylphenyl)-4-(pyrid-4-ylmethyl)piperazin-1-yl)-7-azaspiro[3.5]non-7-yl)benzamide]
CC(C)c1ccccc1[C@@H]1CN(Cc2ccc(C#N)cc2)CCN1C1CC2(CCN(c3cc(Oc4cnc5[nH]ccc5c4)c(C(=O)NS(=O)(=O)c4ccc(NC[C@H]5CC[C@](C)(O)CC5)c([N+](=O)[O-])c4)cc3F)CC2)C1 [compound 214, 2-((1H-pyrrolo[2,3-b]pyrid-5-yl)oxy)-4-(2-((R)-4-(4-cyanobenzyl)-2-(2-isopropylphenyl)piperazin-1-yl)-7-azaspiro[3.5]non-7-yl)-5-fluoro-N-((4-((((1r, 4r)-4-hydroxy-4-methylcyclohexyl)methyl)amino)-3-nitrophenyl)sulfonyl)benzamide]
CC(C)c1ccccc1[C@@H]1CN(Cc2ccc(F)cc2)CCN1C1CC2(CCN(c3cc(Oc4cnc5[nH]ccc5c4)c(C(=O)NS(=O)(=O)c4ccc(NC[C@H]5CC[C@](C)(O)CC5)c([N+](=O)[O-])c4)cc3F)CC2)C1 [compound 215, 2-((1H-pyrrolo[2,3-b]pyrid-5-yl)oxy)-5-fluoro-4-(2-((R)-4-(4-fluorobenzyl)-2-(2-isopropylphenyl)piperazin-1-yl)-7-azaspiro[3.5]non-7-yl)-N-((4-((((1r, 4r)-4-hydroxy-4-methylcyclohexyl)methyl)amino)-3-nitrophenyl)sulfonyl)benzamide]
CC(C)c1ccccc1[C@@H]1CN(Cc2cccc(F)c2F)CCN1C1CC2(CCN(c3cc(Oc4cnc5[nH]ccc5c4)c(C(=O)NS(=O)(=O)c4ccc(NC[C@H]5CC[C@](C)(O)CC5)c([N+](=O)[O-])c4)cc3F)CC2)C1 [compound 218, 2-((1H-pyrrolo[2,3-b]pyrid-5-yl)oxy)-4-(2-((R)-4-(2,3-difluorobenzyl)-2-(2-isopropylphenyl)piperazin-1-yl)-7-azaspiro[3.5]non-7-yl)-5-fluoro-N-((4-((((1r, 4r)-4-hydroxy-4-methylcyclohexyl)methyl)amino)-3-nitrophenyl)sulfonyl)benzamide]
